Among the data in PubChem BioAssay (NCI) are TGI values, retold here.

What all share (assay): inhibition of tumour cell growth, NCI panel, 48 h
Experiment [1] deals with SF-295 CNS.
Experiment [2] concerns ACHN renal.
Experiment [3] deals with EKVX NSCLC.
In experiment [4] the test system is KM12 colon.
The subject of experiment [5] is MDA-MB-435.
Experiment [6] relates to HT29 colon.
In experiment [7] the test system is HL-60(TB) leukemia.
Experiment [8] relates to NCI-H460 lung.
Experiment [9] concerns SK-MEL-5 melanoma.
Experiment [10] deals with HOP-62 NSCLC.

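Tested at 5 concentrations; 48 h exposure; 96-well plates; endpoints linearly interpolated, else capped at highest concentration. TGI: concentration producing complete growth inhibition.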

`NC1=CC(=O)c2c(O)ccc(O)c2C1=O`: the TGI in experiment [1] is 40.9 µM; in experiment [2] it was 34.2 µM; in experiment [3] it was 36.2 µM; in experiment [4], more than 78.7 µM; in experiment [5], 31.6 µM; in [6] it was 19.8 µM. Also, the TGI stood at 6.83 µM in [7], 25.2 µM in [8], 20.3 µM in [9] and 64.9 µM in experiment [10].
Consider `CC1=CC2C3(C)C(C)(C(C)=CP3(=O)c3c(C(C)C)cc(C(C)C)cc3C(C)C)C1P2(=O)c1c(C(C)C)cc(C(C)C)cc1C(C)C` (stereo unspecified), for which the TGI was 6.72 µM in experiment [1]; 8.96 µM in [2]; 9.83 µM in experiment [3]; 4.05 µM in [4]; 5.33 µM in experiment [5]; 6.29 µM in experiment [6]. In addition, the TGI in [7] was found to be 3.85 µM; in experiment [8], 3.01 µM; in experiment [9], 3 µM; in [10] it was 10.4 µM.
Regarding `N#Cc1c(-c2ccc([N+](=O)[O-])cc2)cc(-c2ccc(Nc3ccnc4cc(Cl)ccc34)cc2)[nH]c1=O`, the TGI in experiment [1], in experiment [2], in [3], in [4], in [5] and in experiment [7] was more than 100 µM each time. Moreover, the TGI in [8] and in [10] was more than 100 µM throughout.
For `CN(C)C(=O)C(F)(F)C(c1ccc(F)cc1)C1C(=O)N(C)C(=O)N(C)C1=O` (stereo unspecified), the TGI in [1], in experiment [2], in experiment [3], in experiment [4], in [5] and in experiment [8] was more than 100 µM each time. In addition, the TGI in experiment [9] and in [10] was more than 100 µM throughout.
For the compound `O=c1oc2ccc3ccccc3c2cc1-c1cn2ccsc2n1`, the TGI is more than 100 µM in [1]; 32.1 µM in experiment [2]; 54.5 µM in experiment [3]; 66.2 µM in experiment [4]; 46 µM in experiment [5]; 37.8 µM in experiment [6]. Moreover, the TGI is 51.7 µM in experiment [7], more than 100 µM in experiment [8], 56.5 µM in experiment [9] and more than 100 µM in [10].
`O=c1[nH]c(NCc2ccncc2)nc2nc[nH]c12`: the TGI in experiment [1], in experiment [2], in experiment [3], in [4], in experiment [5] and in [6] was more than 100 µM each time. Besides, the TGI in [8], in experiment [9] and in experiment [10] was more than 100 µM each time.
For the compound `COc1ccc(C2Oc3ccc(Cl)cc3C=C2[N+](=O)[O-])cc1` (stereo unspecified), the TGI in experiment [1], in experiment [2], in experiment [3], in experiment [4], in [5] and in experiment [6] was more than 100 µM each time. The TGI in [7], in [8], in experiment [9] and in experiment [10] was more than 100 µM in each case.
Take `Cc1ccccc1-c1nc2c(N)nc(N)nc2nc1N`: the TGI in experiment [1], in experiment [2], in [3], in [4], in experiment [5] and in experiment [6] was more than 100 µM throughout. Moreover, the TGI in [7], in experiment [8], in [9] and in experiment [10] was more than 100 µM throughout.
In the case of `O=C(NCc1ccccc1)c1cc2ccccc2oc1=Nc1cccc(C(F)(F)F)c1`, the TGI in [1], in experiment [2], in [3], in experiment [4], in [5] and in [6] was more than 100 µM each time. For the same compound, the TGI in [7] is 49.9 µM; in experiment [8] it was more than 100 µM; in experiment [9], 70.8 µM; in experiment [10], more than 100 µM.
Turning to `Cc1nc2ccc(Cl)cc2c(-n2ccnc2)c1CCn1ccnc1`, the TGI is more than 100 µM in experiment [1]; 83.6 µM in [2]; more than 100 µM in experiment [5]; 41.7 µM in experiment [6]; 62.7 µM in [7]; more than 100 µM in experiment [8]. In addition, the TGI was 46.4 µM in experiment [9] and more than 100 µM in experiment [10].
On to `O=C(O)c1nc2ccc(C(F)(F)F)cc2[nH]c1=O`, for which the TGI in [1], in experiment [2], in experiment [3], in experiment [4], in [5] and in experiment [6] was more than 100 µM each time. The TGI in [7], in experiment [8], in experiment [9] and in experiment [10] was more than 100 µM throughout.
As to `COC(=O)[C@]1(C)CCC[C@@]2(C)C1CC[C@]13C=C(C(C)C)[C@H](CC21)CC3(Cl)C#N` (stereo partly specified), the TGI in [1] was more than 100 µM; in experiment [2], more than 100 µM; in experiment [3] it was 77.3 µM; in [4] it was more than 100 µM; in experiment [5], more than 100 µM; in experiment [6] it was more than 100 µM. Moreover, the TGI in experiment [8], in experiment [9] and in experiment [10] was more than 100 µM throughout.
In the case of `c1c[nH]c(-c2cccc3nsnc23)c1`, the TGI in experiment [1], in [2], in experiment [3], in experiment [4], in experiment [5] and in experiment [6] was more than 100 µM in each case. Further, the TGI in experiment [8], in experiment [9] and in experiment [10] was more than 100 µM each time.
For `CN(CCN1CCCC1)C1CCc2cc(Cl)c(Cl)cc2C1` (stereo unspecified), the TGI in experiment [1] amounted to 29.1 µM; in experiment [2], 30.5 µM; in experiment [3], 47.6 µM; in [4] it was 40.4 µM; in experiment [5], 37.5 µM; in experiment [6] it was 22.8 µM. The TGI in experiment [7] is 37.4 µM; in [8], 31.5 µM; in experiment [9] it was 24.8 µM; in [10], 32.7 µM.
